Measurements published in the Kinase Knowledgebase extract (Sharma et al. 2016).

target: PIK3CG (human) (UniProt P48736); experiment: Assessment of PIK3CG Kinase Activity
Sequence (P48736 whole entry, looked up): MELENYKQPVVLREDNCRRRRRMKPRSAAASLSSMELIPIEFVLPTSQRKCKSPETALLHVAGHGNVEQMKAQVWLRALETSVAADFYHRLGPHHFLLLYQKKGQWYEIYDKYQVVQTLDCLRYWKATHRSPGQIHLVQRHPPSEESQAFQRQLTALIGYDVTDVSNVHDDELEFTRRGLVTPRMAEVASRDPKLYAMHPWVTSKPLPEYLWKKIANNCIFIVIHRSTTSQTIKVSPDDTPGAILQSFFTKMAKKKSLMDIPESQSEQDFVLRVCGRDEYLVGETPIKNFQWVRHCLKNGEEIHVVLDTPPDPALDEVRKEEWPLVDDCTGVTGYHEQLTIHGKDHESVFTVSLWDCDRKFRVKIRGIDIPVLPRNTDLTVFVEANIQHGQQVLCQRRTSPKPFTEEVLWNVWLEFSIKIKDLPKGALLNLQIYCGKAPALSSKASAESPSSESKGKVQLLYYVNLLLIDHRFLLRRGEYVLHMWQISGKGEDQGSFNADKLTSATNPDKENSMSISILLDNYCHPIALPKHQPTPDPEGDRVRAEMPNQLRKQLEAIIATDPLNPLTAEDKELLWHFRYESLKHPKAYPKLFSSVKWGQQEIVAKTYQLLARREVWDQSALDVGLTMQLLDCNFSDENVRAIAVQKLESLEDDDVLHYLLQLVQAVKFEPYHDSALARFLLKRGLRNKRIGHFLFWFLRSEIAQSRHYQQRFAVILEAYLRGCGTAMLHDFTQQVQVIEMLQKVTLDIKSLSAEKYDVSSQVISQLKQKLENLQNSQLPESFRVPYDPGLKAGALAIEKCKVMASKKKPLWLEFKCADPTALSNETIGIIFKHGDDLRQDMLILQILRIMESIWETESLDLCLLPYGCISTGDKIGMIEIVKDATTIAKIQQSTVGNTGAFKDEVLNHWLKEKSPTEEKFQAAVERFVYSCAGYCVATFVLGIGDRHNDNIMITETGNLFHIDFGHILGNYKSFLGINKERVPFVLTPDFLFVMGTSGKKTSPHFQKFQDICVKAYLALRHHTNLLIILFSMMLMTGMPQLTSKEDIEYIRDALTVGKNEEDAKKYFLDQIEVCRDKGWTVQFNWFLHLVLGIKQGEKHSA

SMILES	IC50
CC(=O)Nc1nc2c(s1)-c1c(cnn1-c1cccc(C)c1)C2	< 800 nM
CC(=O)Nc1nc2c(s1)-c1c(cnn1-c1ccc(C(=O)NCCC(=O)O)cc1)CC2	< 800 nM
CC(=O)Nc1nc2c(s1)-c1c(c(C(C)C)nn1-c1ccc(C(=O)N[C@H]3CC[C@@H](N4CCCC4)CC3)cc1Cl)CC2	< 800 nM
CC(=O)Nc1nc2c(s1)-c1c(c(-c3ccccn3)nn1-c1ccccc1C(F)(F)F)CC2	< 800 nM
CCC(=O)Nc1nc2c(s1)-c1c(cnn1-c1ccccc1)CC2	< 800 nM
CC(=O)Nc1nc2c(s1)-c1c(cnn1-c1ccc(C(=O)Nc3ccc(NC(C)(C)CN(C)C)cc3)cc1)CC2	< 800 nM
CC(=O)Nc1nc2c(s1)-c1c(c(C(C)C)nn1-c1ccccc1Br)CC2	< 800 nM
COc1ccc(-n2ncc3c2-c2sc(NC(C)=O)nc2CCC3)cc1	< 800 nM
CC(=O)Nc1nc2c(s1)-c1c(cnn1-c1ccccc1C(C)C)C2	< 800 nM
COCc1nn(-c2ccc(C(=O)N(C)C3CCN(C)CC3)cc2Cl)c2c1CCc1nc(NC(C)=O)sc1-2	< 800 nM
CC(=O)Nc1nc2c(s1)-c1c(cnn1-c1ccc(CC(=O)Nc3cc(O)[nH]n3)cc1)CC2	< 800 nM
CC(=O)Nc1nc2c(s1)-c1c(cnn1-c1ccccn1)CC2	< 800 nM
CCCn1cc2c(n1)-c1sc(NC(C)=O)nc1CC2	< 800 nM
CC(=O)Nc1nc2c(s1)-c1c(cnn1-c1ccc(F)cc1)CC2	< 800 nM
CC=Cn1ncc2c1-c1sc(NC(C)=O)nc1CC2	< 800 nM
CC(=O)Nc1nc2c(s1)-c1c(cnn1-c1ccc(C(=O)N[C@H](CCCCN)C(N)=O)cc1Cl)CC2	< 800 nM
COC(=O)Nc1nn(-c2ccccc2Cl)c2c1CCc1nc(NC(C)=O)sc1-2	< 800 nM
CC(=O)Nc1nc2c(s1)-c1c(cnn1-c1ccc(C(=O)NCc3nc4ccccc4n3C)cc1)CC2	< 800 nM
CN(C)CCNC(=O)Nc1nc2c(s1)-c1c(cnn1-c1ccccc1)CC2	< 800 nM
CC(=O)Nc1nc2c(s1)-c1nc(N3CCC4(CN(C)C4)C3)ncc1CC2	< 800 nM
CC(=O)Nc1nc2c(s1)-c1c(cnn1-c1cccc(N3C4CCC3CC(O)C4)c1)CC2 (configuration not stated)	< 800 nM
CC(=O)Nc1nc2c(s1)-c1c(c(C(=O)N3CCSC3)nn1-c1ccccc1)CC2	< 800 nM
CC(=O)Nc1nc2c(s1)-c1c(c(-c3ccoc3)nn1-c1ccc(Cl)cc1)CC2	< 800 nM
CC(=O)Nc1nc2c(s1)-c1c(cnn1-c1ccc(C(=O)NC(C)CO)cc1)CC2 (configuration not stated)	< 800 nM
CC(=O)Nc1nc2c(s1)-c1c(c(-c3ccco3)nn1-c1ccccc1F)CC2	< 800 nM

SMILES	IC50
CCN(CC)CC1CCCCN1C(=O)Cc1ccc(-n2ncc3c2-c2sc(NC(C)=O)nc2CC3)cc1 (configuration not stated)	< 800 nM
CC(=O)Nc1nc2c(s1)-c1c(cnn1-c1ccc(CC(=O)N3CCCC(O)C3)cc1)CC2 (configuration not stated)	< 800 nM
CC(=O)Nc1nc2c(s1)-c1c(c(C)nn1-c1ccccc1C(F)(F)F)CC2	< 800 nM
CC(=O)Nc1nc2c(s1)-c1c(cnn1-c1ccc(C(=O)N[C@@H](Cc3cc4ccccc4[nH]3)C(N)=O)cc1Cl)CC2	< 800 nM
CC(=O)Nc1nc2c(s1)-c1c(cnn1-c1ccc(C(=O)N[C@@H](CCS(C)(=O)=O)C(N)=O)cc1Cl)CC2	< 800 nM
CC(=O)Nc1nc2c(s1)-c1nc(-c3ccccc3)[nH]c(=O)c1CC2	< 800 nM
CC(=O)Nc1nc2c(s1)-c1c(c(C(C)C)nn1-c1ccc(C(=O)N(C)Cc3ccncc3)cc1Cl)CC2	< 800 nM
CC(=O)Nc1nc2c(s1)-c1c(cnn1-c1cc(F)ccc1C)CC2	< 800 nM
CC(=O)Nc1nc2c(s1)-c1c(cnn1-c1ccc(C(=O)N[C@H]3CC[C@H](N4CCOCC4)CC3)cc1)CC2	< 800 nM
CC(=O)Nc1nc2c(s1)-c1nc(-c3ccccc3Cl)ncc1C2	< 800 nM
CC(=O)Nc1nc2c(s1)-c1c(cnn1-c1ccc(S(=O)(=O)N3CCN(C)CC3)cc1)CC2	< 800 nM
CNC(=O)Nc1nc2c(s1)-c1c(cnn1-c1ccccc1Cl)C2	< 800 nM
CC(=O)Nc1nc2c(s1)-c1c(cnn1-c1ccc(C(=O)NCCN(C)C)cc1)CC2	< 800 nM
CC(=O)Nc1nc2c(s1)-c1c(cnn1-c1ccc(CC(=O)N(C)CC(=O)N3CCOCC3)cc1)CC2	< 800 nM
CC(=O)Nc1nc2c(s1)-c1c(cnn1-c1ccc(C(=O)NCC(F)(F)F)cc1)CC2	< 800 nM
CN(C)CCN(C)C(=O)Nc1nc2c(s1)-c1c(cnn1-c1ccccc1)C2	< 800 nM
CC(=O)Nc1nc2c(s1)-c1nn(C(=O)c3ccco3)cc1CC2	< 800 nM
CN(C)C(=O)Nc1nc2c(s1)-c1c(cnn1-c1ccccc1)C2	< 800 nM
CC(=O)Nc1nc2c(s1)-c1c(cnn1-c1ccc(C(=O)N[C@@H](Cc3cccc(Cl)c3)C(N)=O)cc1Cl)CC2	< 800 nM
CCc1ccccc1-n1ncc2c1-c1sc(NC(C)=O)nc1CC2	< 800 nM
CC(=O)Nc1nc2c(s1)-c1c(cnn1-c1ccc3nc[nH]c3c1)CC2	< 800 nM
CC(=O)Nc1nc2c(s1)-c1c(c(C(C)C)nn1-c1ccccc1C(F)(F)F)CC2	< 800 nM
CC(=O)Nc1nc2c(s1)-c1c(cnn1-c1ccc(CC(=O)N3CCS(=O)(=O)CC3)cc1)CC2	< 800 nM
CC(=O)Nc1nc2c(s1)-c1c(cnn1-c1cccc(Cl)c1)CC2	< 800 nM
CC(=O)Nc1nc2c(s1)-c1nc(NCCCC(=O)O)ncc1CC2	< 800 nM

SMILES	IC50
CC(=O)Nc1nc2c(s1)-c1c(cnn1-c1ccc(C(=O)NC3CCOC3=O)cc1)CC2 (configuration not stated)	< 800 nM
CC(=O)Nc1nc2c(s1)-c1c(cnn1-c1ccc(CC(=O)NCc3cccc(C(N)=O)c3)cc1)CC2	< 800 nM
CC(=O)Nc1nc2c(s1)-c1c(cnn1-c1ccc(C(=O)NCCCCCCNC(=O)c3ccccc3)cc1)CC2	< 800 nM
CNC(=O)Nc1nn(-c2ccccc2Cl)c2c1CCc1nc(NC(C)=O)sc1-2	< 800 nM
CC(=O)Nc1nc2c(s1)-c1c(c(C(C)C)nn1-c1ccc(C(=O)NC3CCN(C)CC3)cc1Cl)CC2	< 800 nM
CC(=O)Nc1nc2c(s1)-c1nc(-c3cccc(C)c3)ncc1CC2	< 800 nM
CC(=O)Nc1nc2c(s1)-c1c(cnn1-c1ccc(C(=O)NCC3OCCO3)cc1)CC2	< 800 nM
COc1ccccc1-c1ncc2c(n1)-c1sc(NC(C)=O)nc1CC2	< 800 nM
CC(=O)Nc1nc2c(s1)-c1c(cnn1-c1ccc(C(=O)N3C[C@@H](C)O[C@@H](C)C3)cc1)CC2	< 800 nM
CC(=O)Nc1nc2c(s1)-c1nc(SCCCN(C)C)ncc1CC2	< 800 nM
CN(C)CCCC(=O)Nc1nc2c(s1)-c1c(c(-c3ccccc3)nn1-c1ccccc1Cl)CC2	< 800 nM
CC(=O)Nc1nc2c(s1)-c1c(c(C)nn1-c1ccccc1)CC2	< 800 nM
CC(=O)Nc1nc2c(s1)-c1c(cnn1-c1ccccc1C)C2	< 800 nM
CC(=O)Nc1nc2c(s1)-c1c(c(C(C)C)nn1-c1ccc(C(=O)N[C@H]3CC[C@H](N4CCCC4)CC3)cc1Cl)CC2	< 800 nM
CC(=O)Nc1nc2c(s1)-c1c(c([C@@H]3CCCO3)nn1-c1ccccc1Cl)CC2	< 800 nM
CC(=O)Nc1nc2c(s1)-c1c(cnn1-c1ccc(CC(=O)N3CCc4cn[nH]c4C3)cc1)CC2	< 800 nM
CC(=O)Nc1nc2c(s1)-c1c(cnn1-c1ccc(C(=O)N3CCC(N4CCCCC4)CC3)cc1Cl)CC2	< 800 nM
CC(=O)Nc1nc2c(s1)-c1c(cnn1-c1ccc(C(=O)Nc3ccc(C4CCN(C)CC4)cc3)cc1Cl)CC2	< 800 nM
CC(=O)Nc1nc2c(s1)-c1c(cnn1-c1ccc(C(=O)NC(C)(C)CN3CCN(C)CC3)cc1)CC2	< 800 nM
CC(=O)Nc1nc2c(s1)-c1c(cnn1-c1ccc(CC(=O)N3CCC(C(N)=O)CC3)cc1)CC2	< 800 nM
CC[C@H](NC(=O)c1ccc(-n2ncc3c2-c2sc(NC(C)=O)nc2CC3)c(Cl)c1)C(N)=O	< 800 nM
Nc1nc2c(s1)-c1c(cnn1-c1ccc([N+](=O)[O-])cc1)CC2	< 800 nM
CC(=O)Nc1nc2c(s1)-c1c(cnn1-c1ccc(C)cc1)CC2	< 800 nM
CC(=O)Nc1nc2c(s1)-c1c(cnn1-c1ccc(C(=O)N[C@H]3CC[C@H](N4CCN(C)CC4)CC3)cc1)CC2	< 800 nM
O=CNc1nc2c(s1)-c1nc(-c3ccccc3)ncc1CC2	< 800 nM

SMILES	IC50
CC(=O)Nc1nc2c(s1)-c1nc(N(C)C)ncc1CC2	< 800 nM
CNC(=O)Nc1nc2c(s1)-c1nc(-c3ccccc3)ncc1CC2	< 800 nM
CC(=O)Nc1nc2c(s1)-c1c(c(C(C)C)nn1-c1ccccc1)CC2	< 800 nM
CCCCn1ncc2c1-c1sc(NC(C)=O)nc1CC2	< 800 nM
CCN1CCCC1CNCC(=O)Nc1nc2c(s1)-c1c(cnn1-c1ccccc1)CC2 (configuration not stated)	< 800 nM
CC(=O)Nc1nc2c(s1)-c1c(cnn1-c1ccc(C(=O)N3CCC(N4CCOCC4)CC3)cc1)CC2	< 800 nM
CC(=O)Nc1nc2c(s1)-c1c(cnn1-c1ccc(C(=O)NCc3ccccc3O)cc1)CC2	< 800 nM
CC(=O)Nc1nc2c(s1)-c1c(c(-c3ccccc3)nn1-c1ccccc1C(F)(F)F)CC2	< 800 nM
CC(=O)Nc1nc2c(s1)-c1c(cnn1-c1ccc(CC(=O)N3CCC4(CC3)CNC(=O)O4)cc1)CC2	< 800 nM
CC(=O)Nc1nc2c(s1)-c1c(cnn1-c1ccc(C(=O)N3CCCC(=O)CC3)cc1)CC2	< 800 nM
CC(=O)Nc1nc2c(s1)-c1nn(C(=O)c3ccccc3Cl)cc1CC2	< 800 nM
CC(=O)Nc1nc2c(s1)-c1nc(CCc3ccccc3)ncc1CC2	< 800 nM
O=C(CNC[C@H](O)[C@@H](O)[C@H](O)[C@H](O)CO)Nc1nc2c(s1)-c1c(cnn1-c1ccccc1)CC2	< 800 nM
CC(=O)Nc1nc2c(s1)-c1c(cnn1-c1ccc(C(=O)NCCc3c[nH]cn3)cc1)CC2	< 800 nM
CC(=O)Nc1nc2c(s1)-c1c(cnn1-c1ccc(N3C4CCC3CC(O)C4)cc1)CC2 (configuration not stated)	< 800 nM
CC(=O)Nc1nc2c(s1)-c1c(cnn1-c1ccc(C(F)(F)F)cc1)CC2	< 800 nM
COC(=O)c1nn(-c2ccccc2C(F)(F)F)c2c1CCc1nc(NC(C)=O)sc1-2	< 800 nM
CC(=O)Nc1nc2c(s1)-c1c(cnn1-c1ccc(C(=O)N3CCCC(O)C3)cc1)CC2 (configuration not stated)	< 800 nM
CC(=O)Nc1nc2c(s1)-c1c(cnn1-c1ccc(CC(=O)N3CCNC(=O)C3)cc1)CC2	< 800 nM
CC(=O)Nc1nc2c(s1)-c1c(cnn1-c1ccc(C(=O)N3CCN(NC(=O)c4ccc(F)cc4)CC3)cc1)CC2	< 800 nM
CC(=O)Nc1nc2c(s1)-c1nn(-c3ccccc3Br)c(-c3ccco3)c1CC2	< 800 nM
COc1ccccc1-n1ncc2c1-c1sc(NC(C)=O)nc1C2	< 800 nM
